Measured values published in patent US20260306503A1, “(S)-2-HYDROXY-6-((4-(2-(2-HYDROXYETHYL)NICOTINOYL)MORPHOLIN-3-YL)METHOXY)BENZALDEHYD FOR USE IN THE TREATMENT OF SICKLE CELL DISEASE” (Global Blood Therapeutics, Inc., priority 2023, published 2026).

Tested on: participants with SCD
Assay: Preliminary blood analysis of SCD patients given oral Compound I, 300 mg QD for 14 days then 200 mg QD through Week 12 (Part A Sub Study 2);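 on Bilirubin total: values in mg/dL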
Assay type: in vivo, human
Method: Part A of this study is a Phase 2 randomized, open-label, dose-finding study in approximately 60 adult participants with SCD. The primary objective of Part A of this study is to assess the effects of Compound I in adult participants with SCD as measured by change in hemoglobin.
Participants are screened for eligibility in the study from Day −28 through Day −1. Eligible participants are randomized on Day 1 based on a 1:1 (100 mg: 150 mg) allocation and will receive their initial dose (loading dose) of Compound I. After completion of Day 1 assessments and subsequent loading doses, participants will continue with administration of their maintenance dose daily through Week 12.
Some newly enrolled participants in Part A will receive a loading dose regimen of 300 mg of Compound I once daily over the first 14 days. Participants will then receive 200 mg once daily maintenance doses through Week 12.

## O=Cc1c(O)cccc1OC[C@@H]1COCCN1C(=O)c1cccnc1CCO [Compound I, (S)-2-hydroxy-6-((4-(2-(2-hydroxyethyl)nicotinoyl)morpholin-3-yl)methoxy)benzaldehyde]
Patient A, Day 1, Day 0 (screening) 0.48
  Bilirubin direct: <0.01 mg/dL
Patient A, Day 1, Day 0 (screening) 1.7
  Absolute neutrophil: 2.2 K/μL
Patient A, Day 1, Day 0 (screening) 2.2
  Reticulocytes: 5.2%
Patient A, Day 1, Day 0 (screening) 2.4
  Bilirubin total: 2.16 mg/dL
Patient A, Day 1, Day 0 (screening) 7.0
  Hemoglobin (HGB): 8.8 g/dL
Patient A, Day 1, Day 0 (screening) 20.4
  Hematocrit (HCT): 25.1%
Patient A, Day 1, Day 0 (screening) 26.1
  Alanine Aminotransferase (ALT): 28.2 IU/L
Patient A, Day 1, Day 0 (screening) 56.0
  Aspartate Aminotransferase (AST): 60.0 IU/L
Patient A, Day 1, Day 0 (screening) 143.5
  Alkaline phosphatase: 152.7 IU/L
Patient A, Day 1, Day 0 (screening) 148
  Platelet count: 219 K/μL
Patient A, Day 1, Day 0 (screening) 358
  Lactate dehydrogenase (LDH): 339 IU/L
Patient A, Day 15, Day 0 (screening) 0.48
  Bilirubin direct: <0.01 mg/dL
Patient A, Day 15, Day 0 (screening) 1.7
  Absolute neutrophil: 2.2 K/μL
Patient A, Day 15, Day 0 (screening) 2.2
  Reticulocytes: 3.0%
Patient A, Day 15, Day 0 (screening) 2.4
  Bilirubin total: 1.06 mg/dL
Patient A, Day 15, Day 0 (screening) 7.0
  Hemoglobin (HGB): 10.6 g/dL
Patient A, Day 15, Day 0 (screening) 20.4
  Hematocrit (HCT): 30.9%
Patient A, Day 15, Day 0 (screening) 26.1
  Alanine Aminotransferase (ALT): 26.1 IU/L
Patient A, Day 15, Day 0 (screening) 56.0
  Aspartate Aminotransferase (AST): 43.1 IU/L
Patient A, Day 15, Day 0 (screening) 143.5
  Alkaline phosphatase: 156.7 IU/L
Patient A, Day 15, Day 0 (screening) 148
  Platelet count: 239 K/μL
Patient A, Day 15, Day 0 (screening) 358
  Lactate dehydrogenase (LDH): 243 IU/L
Patient A, Day 29, Day 0 (screening) 1.7
  Absolute neutrophil: 0.5 K/μL
Patient A, Day 29, Day 0 (screening) 2.2
  Reticulocytes: 2.0%
Patient A, Day 29, Day 0 (screening) 7.0
  Hemoglobin (HGB): 12.2 g/dL
Patient A, Day 29, Day 0 (screening) 20.4
  Hematocrit (HCT): 35.9%
Patient A, Day 29, Day 0 (screening) 148
  Platelet count: 211 K/μL
Patient A, Day 43, Day 0 (screening) 0.48
  Bilirubin direct: 0.28 mg/dL
Patient A, Day 43, Day 0 (screening) 1.7
  Absolute neutrophil: 0.6 K/μL
Patient A, Day 43, Day 0 (screening) 1.92
  Bilirubin indirect: 0.78 mg/dL
Patient A, Day 43, Day 0 (screening) 2.2
  Reticulocytes: 1.5%
Patient A, Day 43, Day 0 (screening) 2.4
  Bilirubin total: 1.06 mg/dL
Patient A, Day 43, Day 0 (screening) 7.0
  Hemoglobin (HGB): 14.9 g/dL
Patient A, Day 43, Day 0 (screening) 20.4
  Hematocrit (HCT): 43.3%
Patient A, Day 43, Day 0 (screening) 26.1
  Alanine Aminotransferase (ALT): 28.9 IU/L
Patient A, Day 43, Day 0 (screening) 56.0
  Aspartate Aminotransferase (AST): 44.1 IU/L
Patient A, Day 43, Day 0 (screening) 143.5
  Alkaline phosphatase: 160.8 IU/L
Patient A, Day 43, Day 0 (screening) 148
  Platelet count: 249 K/μL
Patient A, Day 43, Day 0 (screening) 358
  Lactate dehydrogenase (LDH): 193 IU/L
Patient A, Day 57, Day 0 (screening) 0.48
  Bilirubin direct: 0.38 mg/dL
Patient A, Day 57, Day 0 (screening) 1.7
  Absolute neutrophil: 3.5 K/μL
Patient A, Day 57, Day 0 (screening) 1.92
  Bilirubin indirect: 2.39 mg/dL
Patient A, Day 57, Day 0 (screening) 2.2
  Reticulocytes: 0.1%
Patient A, Day 57, Day 0 (screening) 2.4
  Bilirubin total: 2.77 mg/dL
Patient A, Day 57, Day 0 (screening) 7.0
  Hemoglobin (HGB): 12.4 g/dL
Patient A, Day 57, Day 0 (screening) 20.4
  Hematocrit (HCT): 36.3%
Patient A, Day 57, Day 0 (screening) 26.1
  Alanine Aminotransferase (ALT): 66.6 IU/L
Patient A, Day 57, Day 0 (screening) 56.0
  Aspartate Aminotransferase (AST): 82.9 IU/L
Patient A, Day 57, Day 0 (screening) 143.5
  Alkaline phosphatase: 198.2 IU/L
Patient A, Day 57, Day 0 (screening) 148
  Platelet count: 153 K/μL
Patient A, Day 57, Day 0 (screening) 358
  Lactate dehydrogenase (LDH): 345 IU/L
Patient A, Day 85, Day 0 (screening) 0.48
  Bilirubin direct: 0.08 mg/dL
Patient A, Day 85, Day 0 (screening) 1.7
  Absolute neutrophil: 1.1 K/μL
Patient A, Day 85, Day 0 (screening) 1.92
  Bilirubin indirect: 2.81 mg/dL
Patient A, Day 85, Day 0 (screening) 2.2
  Reticulocytes: 5.2%
Patient A, Day 85, Day 0 (screening) 2.4
  Bilirubin total: 2.89 mg/dL
Patient A, Day 85, Day 0 (screening) 7.0
  Hemoglobin (HGB): 11.0 g/dL
Patient A, Day 85, Day 0 (screening) 20.4
  Hematocrit (HCT): 31.0%
Patient A, Day 85, Day 0 (screening) 26.1
  Alanine Aminotransferase (ALT): 28.2 IU/L
Patient A, Day 85, Day 0 (screening) 56.0
  Aspartate Aminotransferase (AST): 54.0 IU/L
Patient A, Day 85, Day 0 (screening) 143.5
  Alkaline phosphatase: 150.6 IU/L
Patient A, Day 85, Day 0 (screening) 148
  Platelet count: 146 K/μL
Patient A, Day 85, Day 0 (screening) 358
  Lactate dehydrogenase (LDH): 354 IU/L
Patient B, Day 1, Day 0 (screening) 0.18
  Bilirubin direct: 0.18 mg/dL
Patient B, Day 1, Day 0 (screening) 4.66
  Bilirubin indirect: 4.17 mg/dL
Patient B, Day 1, Day 0 (screening) 4.84
  Bilirubin total: 4.35 mg/dL
Patient B, Day 1, Day 0 (screening) 6.9
  Absolute neutrophil: 7.3 K/μL
Patient B, Day 1, Day 0 (screening) 8.3
  Hemoglobin (HGB): 8.5 g/dL
Patient B, Day 1, Day 0 (screening) 11.5
  Reticulocytes: 9.5%
Patient B, Day 1, Day 0 (screening) 22.0
  Alanine Aminotransferase (ALT): 22.0 IU/L
Patient B, Day 1, Day 0 (screening) 23.5
  Hematocrit (HCT): 24.7%
Patient B, Day 1, Day 0 (screening) 41.1
  Aspartate Aminotransferase (AST): 39.1 IU/L
Patient B, Day 1, Day 0 (screening) 49.3
  Alkaline phosphatase: 52.4 IU/L
Patient B, Day 1, Day 0 (screening) 360
  Platelet count: 344 K/μL
Patient B, Day 1, Day 0 (screening) 371
  Lactate dehydrogenase (LDH): 351 IU/L
Patient B, Day 8, Day 0 (screening) 0.18
  Bilirubin direct: 0.08 mg/dL
Patient B, Day 8, Day 0 (screening) 4.66
  Bilirubin indirect: 2.32 mg/dL
Patient B, Day 8, Day 0 (screening) 4.84
  Bilirubin total: 2.4 mg/dL
Patient B, Day 8, Day 0 (screening) 6.9
  Absolute neutrophil: 4.1 K/μL
Patient B, Day 8, Day 0 (screening) 8.3
  Hemoglobin (HGB): 11.2 g/dL
Patient B, Day 8, Day 0 (screening) 11.5
  Reticulocytes: 5.4%
Patient B, Day 8, Day 0 (screening) 22.0
  Alanine Aminotransferase (ALT): 21.3 IU/L
Patient B, Day 8, Day 0 (screening) 23.5
  Hematocrit (HCT): 33.1%
Patient B, Day 8, Day 0 (screening) 41.1
  Aspartate Aminotransferase (AST): 42.1 IU/L
Patient B, Day 8, Day 0 (screening) 49.3
  Alkaline phosphatase: 58.5 IU/L
Patient B, Day 8, Day 0 (screening) 360
  Platelet count: 411 K/μL
Patient B, Day 8, Day 0 (screening) 371
  Lactate dehydrogenase (LDH): 385 IU/L
Patient B, Day 29, Day 0 (screening) 0.18
  Bilirubin direct: 0.18 mg/dL
Patient B, Day 29, Day 0 (screening) 4.66
  Bilirubin indirect: 0.88 mg/dL
Patient B, Day 29, Day 0 (screening) 4.84
  Bilirubin total: 1.06 mg/dL
Patient B, Day 29, Day 0 (screening) 6.9
  Absolute neutrophil: 4.1 K/μL
Patient B, Day 29, Day 0 (screening) 8.3
  Hemoglobin (HGB): 14.4 g/dL
Patient B, Day 29, Day 0 (screening) 11.5
  Reticulocytes: 1.2%
Patient B, Day 29, Day 0 (screening) 22.0
  Alanine Aminotransferase (ALT): 17.2 IU/L
Patient B, Day 29, Day 0 (screening) 23.5
  Hematocrit (HCT): 42.8%
Patient B, Day 29, Day 0 (screening) 41.1
  Aspartate Aminotransferase (AST): 29.1 IU/L
Patient B, Day 29, Day 0 (screening) 49.3
  Alkaline phosphatase: 67.6 IU/L
Patient B, Day 29, Day 0 (screening) 360
  Platelet count: 333 K/μL
Patient B, Day 29, Day 0 (screening) 371
  Lactate dehydrogenase (LDH): 195 IU/L
Patient B, Day 43, Day 0 (screening) 0.18
  Bilirubin direct: 0.18 mg/dL
Patient B, Day 43, Day 0 (screening) 4.66
  Bilirubin indirect: 0.51 mg/dL
Patient B, Day 43, Day 0 (screening) 4.84
  Bilirubin total: 0.69 mg/dL
Patient B, Day 43, Day 0 (screening) 6.9
  Absolute neutrophil: 3.7 K/μL
Patient B, Day 43, Day 0 (screening) 8.3
  Hemoglobin (HGB): 15.2 g/dL
Patient B, Day 43, Day 0 (screening) 11.5
  Reticulocytes: 0.8%
Patient B, Day 43, Day 0 (screening) 22.0
  Alanine Aminotransferase (ALT): 16.5 IU/L
